Experiment [1] is described as follows: Blinded three-sample taste panel, model soft drink with 100 ppm sucralose (Example 3). The experiment is classed as in vivo, panelists. The following applies: 100 ppm sucralose in model soft drink (0.14% citric acid, 0.04% trisodium phosphate, pH 3.2), against samples without sucralose. The method, then:
Purified sucralose is prepared by the process of solvent-solvent extraction and sequential recrystallizations as shown in Examples 1 and 2 of the present invention. Next the taste of the resultant composition is tested in a beverage.
Sucralose solutions are prepared by adding crystalline sucralose to a model soft drink composition that contains 0.14% citric acid and 0.04% trisodium phosphate. The pH of this composition is 3.2. Crystalline sucralose compositions are added to the soft drink composition to yield final levels of 100 parts per million (ppm).
Panelists are selected from the general population, and no specific demographic parameters are utilized in recruiting the panelists. The product samples are prepared and served chilled. Portions are dispensed into individual servings for the panelists. Samples are presented to panelists in a blinded manner (samples are identified only by a random digit label). Each panelist receives three samples for tasting (one sample comprising 100 ppm sucralose and two samples not comprising sucralose), and panelists are given a randomized sequence in which to taste the samples. […]
Statistical significance of the correctness of the scores (i.e. panelist ability to detect the sample that is different from the other two) is determined by use of a statistical table that correlates the number of correct responses with a p value.

Experiment [2] can be described thus: Blinded paired palatability panel, consumer product such as ice cream with 150 ppm sucralose (Example 5). In kind it is in vivo, panelists. The conditions noted are these: 150 ppm sucralose in consumer product such as ice cream, served chilled. The method, then: Purified sucralose is prepared by the process of solvent-solvent extraction and sequential recrystallizations as shown in Examples 1 and 2 of the present invention. Next, sucralose is used to enhance the palatability of a consumer product.
The sucralose is added to one group (1G) of two groups (1G and 2G) of a consumer product such as ice cream to yield final levels of 150 ppm sucralose.
Panelists are selected from the general population, and no specific demographic parameters are utilized in recruiting the panelists. The two groups of samples are prepared and served chilled. Portions are dispensed into individual servings for the panelists. Samples are presented to panelists in a blinded manner (samples are identified only by a random digit label). Each panelist receives two samples for tasting, and panelists are given a randomized sequence in which to taste the samples. Thus, the order of tasting is completely random. In each set of two samples, one sample is from G1 and the other sample is from G2. Panelists are asked to select the sample that tastes the most palatable, record that result and record how confident they are of the result. […]
Statistical significance of the correctness of the scores (i.e., panelist ability to detect the most palatable sample) is determined by use of a statistical table that correlates the number of correct responses with a p value.

A short description of experiment [3]: Blinded three-sample taste panel, model soft drink with 10 ppm sucralose (Example 7). The experiment is classed as in vivo, panelists. The conditions noted are these: 10 ppm sucralose in model soft drink (0.14% citric acid, 0.04% trisodium phosphate, pH 3.2). On the procedure: Purified sucralose is prepared by the process of solvent—solvent extraction and sequential recrystallizations as shown in Examples 1 and 2 of the present invention. Next, the effect on palatability of a beverage by purified sucralose is tested.
Sucralose solutions are prepared by adding crystalline sucralose to a model soft drink composition that contains 0.14% citric acid and 0.04% trisodium phosphate. The pH of this composition is 3.2. Crystalline sucralose compositions are added to the soft drink composition to yield final levels of 10 ppm sucralose.
A model soft drink composition without sucralose is also prepared.
Panelists are selected from the general population, and no specific demographic parameters are utilized in recruiting the panelists. The product samples are prepared and served chilled. Portions are dispensed into individual servings for the panelists. Samples are presented to panelists in a blinded manner (samples are identified only by a random digit label). Each panelist receives three samples for tasting, and panelists are given a randomized sequence in which to taste the samples. […]
Statistical significance of the correctness of the scores (i.e., panelist ability to detect the sample that is different from the other two) is determined by use of a statistical table that correlates the number of correct responses with a p value.

The conditions of experiment [4]: background statement; cited from earlier work.

Molecules are shown by their SMILES.

Results on one compound are retold here after US20030171575A1, “Process for improving sucralose purity and yield” (priority 2002, published 2003).

Regarding `OC[C@H]1O[C@H](O[C@]2(CCl)O[C@H](CCl)[C@@H](O)[C@@H]2O)[C@H](O)[C@@H](O)[C@H]1Cl` [Sucralose, 4,1′,6′-trichloro-4,1′,6′-trideoxygalactosucrose], the “palatability of the odd sample (comments of panelists choosing the correct sample)” value in experiment [1] was “increased palatability”. Further, the “palatability against samples not comprising sucralose” value in experiment [2] and in experiment [3] was “more palatable” throughout. Further, the “sweetness intensity compared with sucrose” value in experiment [4] is reported as “several hundred times”.
